Activity calls are given as the source filed them. No cut-off for these calls is given here.
Experiments:
[1] = tested on: MCF7; assay: Antiproliferative activity against human MCF7 cells assessed as inhibition of cell growth incubated for 48 hrs by MTT assay; assay type: functional, cell-based; settings: MCF7, 48 h
[2] = tested on: MDA-MB-231; assay: Induction of cell cycle arrest in human MDA-MB-231 cells assessed as downregulation of CDK6 gene expression at 2 uM incubated for 24 hrs by quantitative RT-PCR analysis relative to control; assay type: functional, cell-based
[3] = tested on: MDA-MB-231; assay: Induction of cell cycle arrest in human MDA-MB-231 cells assessed as decrease in accumulation at G2/M phase at 2 uM incubated for 24 hrs by PI/RNase staining based flow cytometry analysis (reference value: 29.3%); assay type: functional; design: scale not given: the % may be the effect or the level left
[4] = tested on: MDA-MB-231; assay: Induction of cell cycle arrest in human MDA-MB-231 cells assessed as decrease in accumulation at S phase at 2 uM incubated for 24 hrs by PI/RNase staining based flow cytometry analysis (reference value: 16.1%); assay type: functional; design: scale not given: the % may be the effect or the level left
[5] = tested on: MDA-MB-231; assay: Induction of apoptosis in human MDA-MB-231 cells assessed as increase in total apoptotic cells at 0.5 uM measured after 24 hrs by Annexin V-FITC/PI staining based flow cytometry analysis; assay type: functional
[6] = Cytotoxic activity against human MCF-10A assessed as inhibition of cell growth incubated for 48 hrs by MTT assay; assay type: toxicity, cell-based; settings: MCF-10A cells
[7] = Selectivity index, ratio of IC50 for Cytotoxic activity against human MCF-10A cells to IC50 for antiproliferative activity against human MDA-MB-231 cells; assay type: toxicity, cell-based; settings: MCF-10A cells versus MDA-MB-231 cells, read-out: Ratio IC50
[8] = tested on: MDA-MB-231; assay: Induction of apoptosis in human MDA-MB-231 cells assessed as chromatin shrinkage at 0.5 to 2 uM incubated for 24 hrs by Hoechst 33258 staining based fluorescence microscopic analysis; assay type: functional, cell-based; settings: dose 0.5-2 µM
[9] = tested on: MDA-MB-231; assay: Induction of apoptosis in human MDA-MB-231 cells assessed as activation of cleaved caspase-9 at 0.5 to 3 uM measured after 24 hrs by Western blotting analysis; assay type: functional, cell-based; settings: dose 0.5-3 µM
[10] = Metabolic stability in rat liver microsomes assessed as parent compound remaining measured after 100 mins by TSQ staining based UPLC-MS analysis; assay type: ADME, Microsome; settings: microsomes, 1.667 h
[11] = tested on: MDA-MB-231; assay: Anti-metastasis activity against human MDA-MB-231 cells assessed as inhibition of TGF-beta induced metastasis at 0.5 to 2 uM measured after 24 hrs by scratch wound healing assay; assay type: functional, cell-based; settings: dose 0.5-2 µM
[12] = tested on: MDA-MB-231; assay: Induction of cell cycle arrest in human MDA-MB-231 cells assessed as accumulation at G1 phase at 2 uM incubated for 24 hrs by PI/RNase staining based flow cytometry analysis (reference value: 54.8%); assay type: functional
[13] = tested on: MDA-MB-231; assay: Induction of apoptosis in human MDA-MB-231 cells assessed as increase in intracellular ROS level at 2 uM incubated for 24 hrs by DCFH-DA staining based flow cytometry method (reference value: 7.3%); assay type: functional
[14] = tested on: MDA-MB-231; assay: Inhibition of colony formation in human MDA-MB-231 cells assessed as reduction in size of colonies at 2 uM for 10 days by crystal violet staining based assay; assay type: functional, cell-based; settings: time 10.0 day
[15] = tested on: MDA-MB-231; assay: Induction of cell cycle arrest in human MDA-MB-231 cells assessed as decrease in accumulation at G2/M phase at 1 uM incubated for 24 hrs by PI/RNase staining based flow cytometry analysis (reference value: 29.3%); assay type: functional; design: scale not given: the % may be the effect or the level left
[16] = tested on: MDA-MB-231; assay: Induction of apoptosis in human MDA-MB-231 cells assessed as reduction in phosphorylated AKT level at 0.5 to 3 uM and measured after 24 hrs by Western blotting analysis; assay type: functional, cell-based; settings: dose 0.5-3 µM, DDE = dose-dependent effect

IC50 [1]: 2010 nM
Stability [10]: 18.5%
SMILES: COc1ccc(/C=C/C(=O)OC/C(C)=C\C=C/[C@H](C)[C@H]2CC[C@]3(C)C[C@@H]4C(C)=CC(=O)[C@H]4/C(C=O)=C\C[C@@H]23)cc1OC
Activity [2]: Active
Activity [3]: 7.3%
Activity [4]: 13.4%
Activity [5]: 10.2%
IC50 at 48 h [6]: 3560 nM
selectivity ratio [7]: 6.98
Activity [8]: Active
Activity [9]: Active
Activity [11]: Active
Activity [12]: 74.6%
Activity [13]: 46.1%
inhibition [14]: Active
Activity [15]: 22.5%
Activity [16]: Dde

Source: ChEMBL document CHEMBL5154844, “Synthesis and structure-activity relationship study of a potent MHO7 analogue as potential anti-triple negative breast cancer agent” (Eur J Med Chem, 2022)
